Assay [1] relates to Mus musculus. Description: Ability to induce tail vein irritation in mice administered intravenously determined by tail vein assay; Activity- Positive. The class given is functional, organism-based.
Another assay concerns Cryptococcus neoformans. Description: Concentration required to inhibit 90-100% of visible fungal growth in (M1 106) tested in vitro. The class given is functional.
Another assay deals with Aspergillus fumigatus. The experiment in a line: Concentration required to inhibit 90-100% of visible fungal growth in Aspergillus fumigatus (WM1) tested in vitro. The assay is classed as functional.
The test system of a further assay is Candida albicans. Description: Concentration required to inhibit 90-100% of visible fungal growth in Candida albicans (A26) tested in vitro. The class given is functional.
Assay [2] deals with Mus musculus. The experiment in a line: Ability to induce tail vein irritation in mice administered intravenously determined by tail vein assay; Activity- clean. The class given is functional, organism-based.
The test system of assay [3] is Mus musculus. Description: Effective dose required to cure 50% of fungal infection in mice administered intraperitoneally tested in vivo. The assay is classed as functional.

The structures appear in SMILES notation. Values after ≈ are worked out from the molar mass of the structure shown. A value given as a limit tells only on which side of the number the result lay.

Consider `C/C=C1/NC(=O)[C@H]([C@H](C)O)NC(=O)[C@H](CCN)NC(=O)[C@H](CCCCN)NC(=O)[C@H](CC(=O)O)NC(=O)[C@@H](CCN)NC(=O)[C@@H](NC(=O)C[C@H](O)CCCCCCCCCCC)COC(=O)[C@H]([C@H](O)CCl)NC(=O)[C@H]([C@H](O)C(=O)O)NC1=O`, for which the Activity result in the assay with Mus musculus [1] is on record as “Activity- Positive”. Further, the values for the MIC against Cryptococcus neoformans, in the assay on Aspergillus fumigatus and in the assay on Candida albicans were 0.078 µg/mL (≈ 0.0646 µM), greater than 20 µg/mL and 0.625 µg/mL (≈ 0.517 µM), respectively.
On to `C/C=C1/NC(=O)[C@H]([C@H](C)O)NC(=O)[C@H](CCN)NC(=O)[C@H](CCCCN)NC(=O)[C@H](CC(=O)O)NC(=O)[C@@H](CCN)NC(=O)[C@@H](NC(=O)C[C@H](O)CCCCCCCCCCC)COC(=O)[C@H]([C@H](O)CCl)NC(=O)[C@H]([C@H](O)C(=O)NC2CC2)NC1=O`, for which the Activity result with Mus musculus [2] was “Activity- clean”. Moreover, the MIC in the assay on Cryptococcus neoformans is 0.312 µg/mL (≈ 0.25 µM); in the assay on Aspergillus fumigatus it was greater than 20 µg/mL; with Candida albicans, 5 µg/mL (≈ 4.01 µM). This compound registered an ED50 with Mus musculus [3] greater than 20 mg/kg.
On to `C/C=C1\NC(=O)[C@H]([C@H](C)O)NC(=O)[C@H](CCN)NC(=O)[C@H](CCCCN)NC(=O)[C@H](CC(=O)O)NC(=O)[C@@H](CCN)NC(=O)[C@@H](NC(=O)C[C@H](O)CCCCCCCCCCC)COC(=O)[C@H]([C@H](O)CCl)NC(=O)[C@H]([C@H](O)C(=O)NC(Cc2ccccc2)C(=O)OC)NC1=O` (some centres undefined), for which the Activity entry with Mus musculus [2] is on record as “Activity- clean”. The MIC in the assay on Cryptococcus neoformans was 1.25 µg/mL (≈ 0.913 µM); in the assay on Aspergillus fumigatus, greater than 20 µg/mL; with Candida albicans, 10 µg/mL (≈ 7.3 µM). The compound further registered an ED50 in the assay on Mus musculus [3] greater than 20 mg/kg.
Turning to `C/C=C1/NC(=O)[C@H]([C@H](C)O)NC(=O)[C@H](CCN)NC(=O)[C@H](CCCCN)NC(=O)[C@H](CC(=O)O)NC(=O)[C@@H](CCN)NC(=O)[C@@H](NC(=O)C[C@H](O)CCCCCCCCCCC)COC(=O)[C@H]([C@H](O)CCl)NC(=O)[C@H]([C@H](O)C(=O)NCCO)NC1=O`, the Activity result with Mus musculus [2] is “Activity- clean”. For the same compound, the MIC is 0.625 µg/mL (≈ 0.5 µM) in the assay with Cryptococcus neoformans, greater than 20 µg/mL in the assay with Aspergillus fumigatus and 5 µg/mL (≈ 4 µM) against Candida albicans.
In the case of `C/C=C1/NC(=O)[C@H]([C@@H](C)O)NC(=O)[C@H](CCN)NC(=O)[C@H](CCCCN)NC(=O)[C@H](CC(=O)O)NC(=O)[C@@H](CCN)NC(=O)[C@@H](NC(=O)C[C@H](O)CCCCCCCCCCC)COC(=O)[C@H]([C@H](O)CCl)NC(=O)[C@H]([C@H](O)C(=O)NCCCN(C)C)NC1=O`, the MIC is 1.25 µg/mL (≈ 0.968 µM) against Cryptococcus neoformans, greater than 20 µg/mL in the assay with Aspergillus fumigatus and 20 µg/mL (≈ 15.5 µM) in the assay on Candida albicans.
On to `C/C=C1\NC(=O)[C@H]([C@H](C)O)NC(=O)[C@H](CCN)NC(=O)[C@H](CCCCN)NC(=O)[C@H](CC(=O)O)NC(=O)[C@@H](CCN)NC(=O)[C@@H](NC(=O)C[C@H](O)CCCCCCCCCCC)COC(=O)[C@H]([C@H](O)CCl)NC(=O)[C@H]([C@H](O)C(=O)NCCC)NC1=O`, for which, in the assay on Mus musculus [2], the Activity entry is reported as “Activity- clean”. In addition, the MIC is 5 µg/mL (≈ 4 µM) in the assay on Cryptococcus neoformans, greater than 20 µg/mL with Aspergillus fumigatus and 20 µg/mL (≈ 16 µM) with Candida albicans. The compound further registered an ED50 with Mus musculus [3] of 14 mg/kg.
With `C/C=C1/NC(=O)[C@H]([C@H](C)O)NC(=O)[C@H](CCN)NC(=O)[C@H](CCCCN)NC(=O)[C@H](CC(=O)O)NC(=O)[C@@H](CCN)NC(=O)[C@@H](NC(=O)C[C@H](O)CCCCCCCCCCC)COC(=O)[C@H]([C@H](O)CCl)NC(=O)[C@H]([C@H](O)C(=O)NC)NC1=O`, the Activity result in the assay on Mus musculus [2] is listed as “Activity- clean”. Also, the figures for the minimum inhibitory concentration (MIC) against Cryptococcus neoformans, against Aspergillus fumigatus and in the assay with Candida albicans were 0.156 µg/mL (≈ 0.128 µM), greater than 20 µg/mL and 1.25 µg/mL (≈ 1.02 µM), respectively. The same compound registered an ED50 in the assay on Mus musculus [3] greater than 20 mg/kg.
For the compound `C/C=C1/NC(=O)[C@H]([C@@H](C)O)NC(=O)[C@H](CCN)NC(=O)[C@H](CCCCN)NC(=O)[C@H](CC(=O)O)NC(=O)[C@@H](CCN)NC(=O)[C@@H](NC(=O)C[C@H](O)CCCCCCCCCCC)COC(=O)[C@H]([C@H](O)CCl)NC(=O)[C@H]([C@H](O)C(=O)NCC)NC1=O`, the MIC is 1.25 µg/mL (≈ 1.01 µM) with Cryptococcus neoformans, greater than 20 µg/mL in the assay on Aspergillus fumigatus and 10 µg/mL (≈ 8.1 µM) in the assay with Candida albicans.
As for `C/C=C1/NC(=O)[C@H]([C@H](C)O)NC(=O)[C@H](CCN)NC(=O)[C@H](CCCCN)NC(=O)[C@H](CC(=O)O)NC(=O)[C@@H](CCN)NC(=O)[C@@H](NC(=O)C[C@H](O)CCCCCCCCCCC)COC(=O)[C@H]([C@H](O)CCl)NC(=O)[C@H]([C@H](O)C(=O)NC2CCC2)NC1=O`, the Activity entry in the assay on Mus musculus [2] is “Activity- clean”. In addition, the MIC against Cryptococcus neoformans was 1.25 µg/mL (≈ 0.991 µM); in the assay with Aspergillus fumigatus it was greater than 20 µg/mL; with Candida albicans, 5 µg/mL (≈ 3.97 µM). The same compound displayed an ED50 in the assay on Mus musculus [3] greater than 20 mg/kg.
The corresponding values for `C/C=C1/NC(=O)[C@H]([C@H](C)O)NC(=O)[C@H](CCN)NC(=O)[C@H](CCCCN)NC(=O)[C@H](CC(=O)O)NC(=O)[C@@H](CCN)NC(=O)[C@@H](NC(=O)C[C@H](O)CCCCCCCCCCC)COC(=O)[C@H]([C@H](O)CCl)NC(=O)[C@H]([C@H](O)C(N)=O)NC1=O` are “Activity- clean”, less than 1 µg/mL, greater than 20 µg/mL, 0.312 µg/mL (≈ 0.259 µM) and greater than 20 mg/kg.
In the same order, the values of `C/C=C1/NC(=O)[C@H]([C@H](C)O)NC(=O)[C@H](CCN)NC(=O)[C@H](CCCCN)NC(=O)[C@H](CC(=O)O)NC(=O)[C@@H](CCN)NC(=O)[C@@H](NC(=O)C[C@H](O)CCCCCCCCCCC)COC(=O)[C@H]([C@H](O)CCl)NC(=O)[C@H]([C@H](O)C(=O)NCCCC)NC1=O` are “Activity- clean”, 1.25 µg/mL (≈ 0.99 µM), greater than 20 µg/mL, 20 µg/mL (≈ 15.8 µM) and greater than 20 mg/kg.
For the compound `C/C=C1/NC(=O)[C@H]([C@H](C)O)NC(=O)[C@H](CCN)NC(=O)[C@H](CCCCN)NC(=O)[C@H](CC(=O)O)NC(=O)[C@@H](CCN)NC(=O)[C@@H](NC(=O)C[C@H](O)CCCCCCCCCCC)COC(=O)[C@H]([C@H](O)CCl)NC(=O)[C@H]([C@H](O)C(=O)NCC(=O)OC)NC1=O`, in the assay on Mus musculus [2], the Activity entry was “Activity- clean”. In addition, the results for the MIC against Cryptococcus neoformans, in the assay on Aspergillus fumigatus and against Candida albicans were 0.08 µg/mL (≈ 0.0626 µM), greater than 20 µg/mL and 2.5 µg/mL (≈ 1.95 µM), respectively. Also, in the assay on Mus musculus [3], the ED50 was greater than 20 mg/kg.
On to `C/C=C1/NC(=O)[C@H]([C@H](C)O)NC(=O)[C@H](CCN)NC(=O)[C@H](CCCCN)NC(=O)[C@H](CC(=O)O)NC(=O)[C@@H](CCN)NC(=O)[C@@H](NC(=O)C[C@H](O)CCCCCCCCCCC)COC(=O)[C@H]([C@H](O)CCl)NC(=O)[C@H]([C@H](O)C(=O)NCCN(C)C)NC1=O`, for which the Activity entry in the assay with Mus musculus [2] is reported as “Activity- clean”. Moreover, the MIC was 1.25 µg/mL (≈ 0.978 µM) against Cryptococcus neoformans, greater than 20 µg/mL against Aspergillus fumigatus and 5 µg/mL (≈ 3.91 µM) in the assay with Candida albicans. Besides, the ED50 in the assay on Mus musculus [3] is greater than 20 mg/kg.
